US4132737A, “Trifluoromethyl substituted 1-aminoindanes” (Eli Lilly and Company, priority 1978, dated 1979)
Where a name gives a salt, the structure may show the parent alone.

Key:
catechol amine uptake = conditions: literature statement, no figures; cited from earlier work
[1] = target: T1, norephineprine N-methyl transferase (Oryctolagus cuniculus, UniProt G1TT82); experiment: in vitro inhibition of N-methyl transferase (NMT) from rabbit adrenals; assay type: biochemical; conditions: from concentration giving 50 percent inhibition, decreasing concentrations from 1 × 10^-4 M, read-out: pI50 (converted)
T1 construct: employing NMT from rabbit adrenals; from tissue; host or cells: rabbit adrenals
T1 sequence (G1TT82 1-286): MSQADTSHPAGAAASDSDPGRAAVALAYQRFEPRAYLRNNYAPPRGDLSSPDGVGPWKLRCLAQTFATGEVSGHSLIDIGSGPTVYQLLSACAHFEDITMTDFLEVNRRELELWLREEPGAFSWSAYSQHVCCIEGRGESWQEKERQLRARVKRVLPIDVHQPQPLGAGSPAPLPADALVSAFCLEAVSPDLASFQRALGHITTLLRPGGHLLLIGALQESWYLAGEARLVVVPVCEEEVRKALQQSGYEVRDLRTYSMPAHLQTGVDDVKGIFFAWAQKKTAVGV
Excerpt: The compounds of this invention, either in the form of the free base, or as a pharmaceutically-acceptable acid addition salt thereof, are enzyme inhibitors. In particular, as previously stated, they are inhibitors of norephineprine N-methyl transferase [PNMT or phenethanolamine N-methyl transferase - - see Axelrod, J. Bio. Chem., 237, 1657 (1962)]. Compounds which inhibit the conversion of norephineprine to ephineprine are capable of lowering a high ephineprine-norephineprine ratio in mammals, a physiological condition frequently associated with essential hypertension. The compounds of this invention are thus capable of ameliorating the ephineprine-norephineprine imbalance in essential hypertension, an important aspect of the treatment of this disease state. The effectiveness of the compounds as N-methyl transferase inhibitors has been measured in vitro employing NMT from rabbit adrenals. By using a series of decreasing concentration of the inhibiting amine, usually starting with 1 × 10^-4 M continuing with 3 × 10^-5 M, 1 × 10^-5 M, etc., it was possible to determine a concentration at which the 50 percent inhibition of NMT was achieved. The negative reciprocal logarhithm (pI50) of this number was also calculated as a useful index. Table 1, which follows, summarizes the information thus obtained; i.e., the determination of enzyme inhibition activity for the compounds of this invention. […]

Row | SMILES | inhibitor of catechol amine uptake, compared with 1-aminoindane (catechol amine uptake) | pKa (pKa determination) | IC50 [1] [µM]
1 | NC1Cc2ccccc2C1 [2-aminoindane] | better inhibitor of catechol amine uptake than 1-aminoindane | – | –
2 | NC1CCc2c1cccc2C(F)(F)F (centres unmarked) [4-trifluoromethyl-1-aminoindane hydrochloride] | – | 8.58 | 0.234
3 | NC1CCc2ccc(C(F)(F)F)cc21 (centres unmarked) [6-Trifluoromethyl-1-aminoindane hydrochloride] | – | 8.52 | 64.6
